Measurements: US5639726A, “Peptide mediated enhancement of thrombolysis methods and compositions” (The Regents of the University of Michigan, priority 1994, dated 1997)
Ends that are not written are not given here.

How the values were obtained:
PAI-1 [1] = molecular target: T1, PAI-1 (Homo sapiens, UniProt P05121); assay: Kinetics of peptide annealing: residual PAI inhibitory activity assayed with β-trypsin and S-2222; type: biochemical; details: for lowest PAI-1 functional half-life obtained with increasing concentrations of peptide: 9.0 hr in the absence of peptide
T1 construct: made in house; host or cells: E. coli (vector pET3a)
T1 sequence (P05121 24-402): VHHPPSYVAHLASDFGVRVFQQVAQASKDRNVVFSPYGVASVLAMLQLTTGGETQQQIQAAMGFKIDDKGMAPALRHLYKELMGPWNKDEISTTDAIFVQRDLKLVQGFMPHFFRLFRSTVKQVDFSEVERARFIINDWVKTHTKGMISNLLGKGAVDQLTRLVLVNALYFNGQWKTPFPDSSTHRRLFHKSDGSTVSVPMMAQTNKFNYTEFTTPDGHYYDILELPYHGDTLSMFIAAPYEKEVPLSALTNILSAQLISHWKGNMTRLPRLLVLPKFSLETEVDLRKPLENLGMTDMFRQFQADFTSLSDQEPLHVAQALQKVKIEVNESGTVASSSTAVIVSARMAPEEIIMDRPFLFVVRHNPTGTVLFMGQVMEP

PAI-1 [2] = molecular target: T1, PAI-1; assay: as above; type: biochemical; details: for kobs / k: 25° C.; for half-life of PAI-1 decreased to: summary of Example 2, peptide concentration not given; for IC50: FIG. 2, read-out: IC50 for the inactivation of PAI-1
Experimental: PAI-1 (6.4 μM) was incubated with increasing concentrations of each peptide at 23° C. and the (T1/2) of PAI-1 inactivation was determined by measuring the PAI-1 activity remaining over time.
Peptides were dissolved in 1 mM HCl+1% TWEEN-80 (the three PAI peptides) (SEQ ID NOS: 1-3), or in 0.1M HEPES (SEQ ID NOS: 4-5), 0.1M NaCl, 0.1% PEG-8000, pH […] (the two consensus peptides). Peptides were annealed to active PAI by incubation of active PAI in 0.1M HEPES, 0.1M NaCl, 0.1% PEG-8000, pH 7.4 with a peptide in its solvent. Ten percent of the final incubation mixture consisted of the peptide solvent. Incubation was carried out at 25° C. until no PAI inhibitory activity remained as determined by kinetics rate assays with trypsin, described below. The final concentration of PAI in the incubation mixture was either 0.9 μM (for kinetics assays) or 6.3 μM (for gels and purification). The peptide concentrations varied greatly due to the individual solubilities and rates of insertion of each peptide. These concentrations are given in the legends of the appropriate figures.
During annealing of 0.9 μM PAI with a peptide, the residual inhibitory activity of PAI was measured after varying incubation times by assaying an aliquot of the sample with β-trypsin. Trypsin (1 nM final concentration) was added to the chromogenic substrate S-2222 (950 μM) with 27 nM PAI sample. The absorbance at 405 nm was measured continuously for at least 12.5 min in a Shimadzu UV-265 UV-visible spectrophotometer. The pseudo-first order rate constant of trypsin is an indirect measure of the amount of PAI that has lost inhibitory activity due either to annealing or to becoming latent. The rate constant of controls containing the peptide solvent but no peptide was subtracted from that of the experimental assays in order to correct for the effect of the simultaneous change of PAI from the active to the latent state.

PAI-1 [3] = molecular target: T1, PAI-1; assay: Native gel electrophoresis of PAI incubated with peptide; type: binding
Experimental: SDS-polyacrylamide gel electrophoresis (SDS-PAGE) under nonreducing conditions was carried out according to the method of Laemmli (Laemmli, 1970) on 10% gels. Native gel electrophoresis with 5% gels was carried out by omitting SDS and boiling from Laemmli's method. All gels were stained with Coomassie brilliant blue. Gels of PAI-peptide samples were scanned with an LKB Ultroscan XL Laser Densitometer to determine the relative amounts of peptide-annealed and latent PAI.
Four of the five peptides have a net negative charge due to glutamic acid residues and the free carboxy terminus (FIG. 1). The wtPAI 8-mer has a net -1 charge (the carboxy terminus). The V→E PAI 8-mer (SEQ ID NO:3) and consensus 8-mer (SEQ ID NO:4) each have a -2 charge (the glutamic acid residue and the carboxyl group). […] The PAI 14-mer (SEQ ID NO:1) is uncharged since it contains no glutamic acid and the arginine and carboxyl groups neutralize each other. Because of the negative charges of 4 of the peptides, native gels of PAI annealed to these peptides should show a band which migrates more quickly than the band representative of free active PAI. Similarly, if one of these peptides is incubated with PAI but fails to form a strong interaction with PAI, native gels should show a band which migrates identically to the free PAI.

normal human plasma = assay: Activated partial thromboplastin time (APTT) in normal human plasma, with porcine coronary thrombus extract; type: biochemical
Experimental: Platelets contain several factors that inhibit heparin, including platelet factor 4, heparatinase, and histidine-rich glycoprotein. In an attempt to study potential heparin resistance within the microenvironment of the coronary thrombus the coronary thrombi previously analyzed for PAI-1 content were also assessed for their capacity to inhibit heparin in vitro (Eitzman et al., 1994). Pharmaceutical grade, unfractionated heparin was added to normal human plasma in sufficient quantity (0.12 U/mL) to prolong the activated partial thromboplastin time (APTT) to approximately 2× control. APTT determinations were then repeated after the addition of 2.5 μL of thrombus extract per 100 μL of heparinized plasma.
Similar experiments were also performed using recombinant hirudin as anticoagulant. In these experiments, hirudin (0.17 μg/mL) was used to prolong the APTT to approximately twice control values. However, unlike the case with heparin, thrombus extracts had no effect on capacity of hirudin to prolong the APTT (FIG. 9a).

Q: Which results are given for “Ac-TEAAAATGAAATGR [SEQ ID NO: 5, TEAAAATGAAATGR]”?
A: half-life of PAI inactivation (PAI-1 [1]; 0.9 μM PAI, 1.2 mM peptide): about 12 min; k (PAI-1 [1]; peptide 1 mM, 25° C.): .027 M⁻¹ s⁻¹; t1/2 of PAI-1 inactivation (PAI-1 [1]; peptide 1 mM, 25° C.): 7.2 h; k (PAI-1 [1]; peptide 1.3 mM, 25° C.): .75 M⁻¹ s⁻¹; kobs (PAI-1 [1]; peptide 1.3 mM, 25° C.): 3.4 h⁻¹; t1/2 of PAI-1 inactivation (PAI-1 [1]; peptide 1.3 mM, 25° C.): .20 h; kobs (PAI-1 [2]; peptide 1 mM): .097 h⁻¹; half-life of PAI-1 decreased to (PAI-1 [2]): 0.2 h

Q: What does the source list for “Ac-TEASSSTA [SEQ ID NO: 3, Thr-Glu-Ala-Ser-Ser-Ser-Thr-Ala]”?
A: lowest PAI-1 functional half-life obtained with increasing concentrations of peptide (PAI-1 [1]; 25° C.): 1.2 h; k (PAI-1 [1]; peptide .05 mM, 25° C.): .50 M⁻¹ s⁻¹; t1/2 of PAI-1 inactivation (PAI-1 [1]; peptide .05 mM, 25° C.): 7.7 h; kobs (PAI-1 [1]; peptide .1 mM, 25° C.): .13 h⁻¹; t1/2 of PAI-1 inactivation (PAI-1 [1]; peptide .1 mM, 25° C.): 5.5 h; k (PAI-1 [1]; peptide .15 mM, 25° C.): .37 M⁻¹ s⁻¹; kobs (PAI-1 [1]; peptide .15 mM, 25° C.): .20 h⁻¹; t1/2 of PAI-1 inactivation (PAI-1 [1]; peptide .15 mM, 25° C.): 3.5 h; k (PAI-1 [1]; peptide .2 mM, 25° C.): .40 M⁻¹ s⁻¹; kobs (PAI-1 [1]; peptide .2 mM, 25° C.): .28 h⁻¹; t1/2 of PAI-1 inactivation (PAI-1 [1]; peptide .2 mM, 25° C.): 2.4 h; k (PAI-1 [1]; peptide .246 mM, 25° C.): .37 M⁻¹ s⁻¹; t1/2 of PAI-1 inactivation (PAI-1 [1]; peptide .246 mM, 25° C.): 2.1 h; k (PAI-1 [1]; peptide .3 mM, 25° C.): .39 M⁻¹ s⁻¹; kobs (PAI-1 [1]; peptide .3 mM, 25° C.): .42 h⁻¹; t1/2 of PAI-1 inactivation (PAI-1 [1]; peptide .3 mM, 25° C.): 1.7 h; kobs (PAI-1 [1]; peptide .4 mM, 25° C.): .48 h⁻¹; t1/2 of PAI-1 inactivation (PAI-1 [1]; peptide .4 mM, 25° C.): 1.4 h; k (PAI-1 [1]; peptide .5 mM, 25° C.): .44 M⁻¹ s⁻¹; kobs (PAI-1 [1]; peptide .5 mM, 25° C.): .79 h⁻¹; t1/2 of PAI-1 inactivation (PAI-1 [1]; peptide .5 mM, 25° C.): .87 h; k (PAI-1 [1]; peptide .6 mM, 25° C.): .45 M⁻¹ s⁻¹; t1/2 of PAI-1 inactivation (PAI-1 [1]; peptide .6 mM, 25° C.): .71 h; electrophoretic mobility of active PAI incubated with peptide, native gel (PAI-1 [3]): Only a single major band; IC50 (PAI-1 [2]): 1600 µM; kobs (PAI-1 [2]; peptide .05 mM): .090 h⁻¹; k (PAI-1 [2]; peptide .1 mM): .35 M⁻¹ s⁻¹; kobs (PAI-1 [2]; peptide .246 mM): .33 h⁻¹; k (PAI-1 [2]; peptide .4 mM): .33 M⁻¹ s⁻¹; kobs (PAI-1 [2]; peptide .6 mM): .98 h⁻¹; half-life of PAI-1 decreased to (PAI-1 [2]): 1.2 h

Q: How did the “lowest PAI-1 functional half-life obtained with increasing concentrations of peptide” value (PAI-1 [1]; 25° C.) turn out when “Ac-TVASSSTA [SEQ ID NO: 2, Thr-Val-Ala-Ser-Ser-Ser-Thr-Ala]” was run?
A: 0.7 h

Q: And the “t1/2 of PAI-1” value (PAI-1 [1]; peptide 55 μM, 25° C.)?
A: over 400 min

Q: And the k (PAI-1 [1]; peptide .015 mM, 25° C.)?
A: 1.7 M⁻¹ s⁻¹

Q: What about the kobs (PAI-1 [1]; peptide .015 mM, 25° C.) of the same substance?
A: .093 h⁻¹

Q: What about the “t1/2 of PAI-1 inactivation” value (PAI-1 [1]; peptide .015 mM, 25° C.) of the same substance?
A: 7.5 h

Q: What about the k (PAI-1 [1]; peptide .025 mM, 25° C.) of the same substance?
A: .99 M⁻¹ s⁻¹

Q: What about the kobs (PAI-1 [1]; peptide .025 mM, 25° C.) of the same substance?
A: .089 h⁻¹

Q: What about the “t1/2 of PAI-1 inactivation” value (PAI-1 [1]; peptide .025 mM, 25° C.) of the same substance?
A: 7.8 h

Q: What about the k (PAI-1 [1]; peptide .045 mM, 25° C.) of the same substance?
A: 6.9 M⁻¹ s⁻¹

Q: And the kobs (PAI-1 [1]; peptide .045 mM, 25° C.)?
A: 1.1 h⁻¹

Q: What about the “t1/2 of PAI-1 inactivation” value (PAI-1 [1]; peptide .045 mM, 25° C.) of the same substance?
A: .62 h

Q: What about the k (PAI-1 [1]; peptide .064 mM, 25° C.) of the same substance?
A: 42 M⁻¹ s⁻¹

Q: And the kobs (PAI-1 [1]; peptide .064 mM, 25° C.)?
A: 9.6 h⁻¹

Q: And the “t1/2 of PAI-1 inactivation” value (PAI-1 [1]; peptide .064 mM, 25° C.)?
A: .072 h

Q: What about the “electrophoretic mobility of active PAI incubated with peptide, native gel” value (PAI-1 [3]) of the same substance?
A: two bands

Q: What about the IC50 (PAI-1 [2]) of the same substance?
A: 230 µM

Q: What about the “half-life of PAI-1 decreased to” value (PAI-1 [2]) of the same substance?
A: 0.717 h

Q: hirudin was tested. Which “effect of thrombus extracts on capacity to prolong the APTT” value (normal human plasma; hirudin 0.17 μg/mL) did it give?
A: no effect

Q: What about the “prolongation of the APTT” value (normal human plasma; hirudin 0.17 μg/mL) of the same substance?
A: approximately twice

Q: With “Ac-TEAAAATG [SEQ ID NO: 4, Thr-Glu-Ala-Ala-Ala-Ala-Thr-Gly]” as the substance, how does the “lowest PAI-1 functional half-life obtained with increasing concentrations of peptide” value (PAI-1 [1]; 25° C.) read?
A: 1.2 h

Q: And the k (PAI-1 [1]; peptide 1.5 mM, 25° C.)?
A: .024 M⁻¹ s⁻¹

Q: And the kobs (PAI-1 [1]; peptide 1.5 mM, 25° C.)?
A: .13 h⁻¹

Q: And the “t1/2 of PAI-1 inactivation” value (PAI-1 [1]; peptide 1.5 mM, 25° C.)?
A: 5.4 h

Q: What about the k (PAI-1 [1]; peptide 2.5 mM, 25° C.) of the same substance?
A: .024 M⁻¹ s⁻¹

Q: What about the “t1/2 of PAI-1 inactivation” value (PAI-1 [1]; peptide 2.5 mM, 25° C.) of the same substance?
A: 3.3 h

Q: What about the k (PAI-1 [1]; peptide 3.5 mM, 25° C.) of the same substance?
A: .022 M⁻¹ s⁻¹

Q: And the kobs (PAI-1 [1]; peptide 3.5 mM, 25° C.)?
A: .28 h⁻¹

Q: And the “t1/2 of PAI-1 inactivation” value (PAI-1 [1]; peptide 3.5 mM, 25° C.)?
A: 2.5 h

Q: And the k (PAI-1 [1]; peptide 5.04 mM, 25° C.)?
A: .021 M⁻¹ s⁻¹

Q: And the “t1/2 of PAI-1 inactivation” value (PAI-1 [1]; peptide 5.04 mM, 25° C.)?
A: 1.8 h

Q: And the k (PAI-1 [1]; peptide 7 mM, 25° C.)?
A: .017 M⁻¹ s⁻¹

Q: And the kobs (PAI-1 [1]; peptide 7 mM, 25° C.)?
A: .44 h⁻¹

Q: And the “t1/2 of PAI-1 inactivation” value (PAI-1 [1]; peptide 7 mM, 25° C.)?
A: 1.6 h

Q: What about the k (PAI-1 [1]; peptide 9 mM, 25° C.) of the same substance?
A: .017 M⁻¹ s⁻¹

Q: And the kobs (PAI-1 [1]; peptide 9 mM, 25° C.)?
A: .54 h⁻¹

Q: And the “t1/2 of PAI-1 inactivation” value (PAI-1 [1]; peptide 9 mM, 25° C.)?
A: 1.3 h

Q: And the k (PAI-1 [1]; peptide 11 mM, 25° C.)?
A: .015 M⁻¹ s⁻¹

Q: And the kobs (PAI-1 [1]; peptide 11 mM, 25° C.)?
A: .58 h⁻¹

Q: What about the “t1/2 of PAI-1 inactivation” value (PAI-1 [1]; peptide 11 mM, 25° C.) of the same substance?
A: 1.2 h

Q: What about the IC50 (PAI-1 [2]) of the same substance?
A: 1600 µM

Q: And the kobs (PAI-1 [2]; peptide 2.5 mM)?
A: .21 h⁻¹

Q: And the kobs (PAI-1 [2]; peptide 5.04 mM)?
A: .38 h⁻¹

Q: What about the “half-life of PAI-1 decreased to” value (PAI-1 [2]) of the same substance?
A: 1.3 h

Q: For heparin, which “shortening of the APTT by thrombus extract” value (normal human plasma; 2.5 μL of thrombus extract per 100 μL of heparinized plasma) is on record?
A: approximately 20 seconds

Q: What about the “prolongation of the APTT” value (normal human plasma; heparin 0.12 U/mL) of the same substance?
A: approximately 2 × control
